In US12358915B2, “METTL3 inhibitory compounds” (STORM THERAPEUTICS LTD., priority 2019, dated 2025):
Counter-ions that a name gives are not always drawn.

Each compound was assayed against T1, METTL3/14 (Homo sapiens, UniProt Q86U44) (assay: METTL3/14 methyltransferase assay (METTL3_14 RFMS, RapidFire mass spectrometry)). Settings: 5 nM METTL3/14, 0.2 μM RNA substrate, 0.5 μM SAM; lower limit of the assay IC50=5 nM; Compounds 1-62; read-out: METTL3_14 RFMS IC50.
T1 construct: The enzyme used was full-length his-tagged METTL3; His; made in house
Type: biochemical
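Note: recombinant His-tagged METTL3 with FLAG-tagged METTL14 from baculovirus, SAH product quantified by mass spectrometry against isotope-labelled internal standards, 60 min at room temperature, scaled between no-RNA and DMSO-only wells.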

T1 sequence (Q86U44 whole entry): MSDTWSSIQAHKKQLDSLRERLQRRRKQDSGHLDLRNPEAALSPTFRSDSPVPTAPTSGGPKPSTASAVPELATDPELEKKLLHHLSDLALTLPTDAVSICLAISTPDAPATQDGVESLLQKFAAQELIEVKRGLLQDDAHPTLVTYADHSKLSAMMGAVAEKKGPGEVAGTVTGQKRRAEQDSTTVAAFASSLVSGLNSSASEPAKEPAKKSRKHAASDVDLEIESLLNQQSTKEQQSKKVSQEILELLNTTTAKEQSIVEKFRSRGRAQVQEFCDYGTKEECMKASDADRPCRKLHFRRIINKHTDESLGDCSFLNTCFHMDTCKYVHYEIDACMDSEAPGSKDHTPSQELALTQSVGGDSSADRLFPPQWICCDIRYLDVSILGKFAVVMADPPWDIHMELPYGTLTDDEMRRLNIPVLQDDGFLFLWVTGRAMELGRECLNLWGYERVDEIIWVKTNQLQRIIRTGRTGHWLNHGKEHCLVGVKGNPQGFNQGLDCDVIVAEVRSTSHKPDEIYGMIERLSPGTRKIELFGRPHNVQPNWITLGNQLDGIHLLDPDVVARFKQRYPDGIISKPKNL
T1 sequence (Q9HCE5 whole entry partner): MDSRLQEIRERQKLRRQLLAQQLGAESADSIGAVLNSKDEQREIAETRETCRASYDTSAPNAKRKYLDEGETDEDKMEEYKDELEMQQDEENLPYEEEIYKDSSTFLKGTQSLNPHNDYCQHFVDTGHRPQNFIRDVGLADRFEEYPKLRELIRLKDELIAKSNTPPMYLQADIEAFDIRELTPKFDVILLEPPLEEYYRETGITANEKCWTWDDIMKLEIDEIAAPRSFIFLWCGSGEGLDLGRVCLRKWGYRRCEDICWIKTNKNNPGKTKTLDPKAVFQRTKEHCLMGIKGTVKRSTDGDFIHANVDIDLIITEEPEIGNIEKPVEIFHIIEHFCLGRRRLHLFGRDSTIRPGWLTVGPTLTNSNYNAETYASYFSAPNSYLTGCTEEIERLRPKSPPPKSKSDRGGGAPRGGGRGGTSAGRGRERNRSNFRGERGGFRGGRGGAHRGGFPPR

Compared with `Cc1ccc2nc(Cc3nnc(-c4cccc5[nH]ncc45)o3)cn2c1` [Compound 62, 2-(1H-indazol-4-yl)-5-[(6-methylimidazo[1,2-a]pyridin-2-yl)methyl]-1,3,4-oxadiazole], `O=C(NCc1cn2cc(O)ccc2n1)c1cccc2[nH]ncc12` [Compound 43, N-({6-hydroxyimidazo[1,2-a]pyridin-2-yl}methyl)-1H-indazole-4-carboxamide] is 6.8-fold lower in IC50: 8760 nM for the first, 1290 nM for the second. The second is the more potent here.

First: O=C(NCc1cn2ccccc2n1)c1cc(=O)n2ccccc2n1 [Compound 26]
Second: C=Cc1ccn2cc(CNC(=O)c3cc(=O)n4ccccc4n3)nc2c1 [Compound 60, N-({7-ethenylimidazo[1,2-a]pyridin-2-yl}methyl)-4-oxo-4H-pyrido[1,2-a]pyrimidine-2-carboxamide]
The IC50 of the first is 2.9-fold higher: 2060 nM for the first, 700 nM for the second.

First: COc1ccn2c(=O)cc(C(=O)NCc3cn4cc(C)ccc4n3)nc2c1 [Compound 19, 8-methoxy-N-({6-methylimidazo[1,2-a]pyridin-2-yl}methyl)-4-oxo-4H-pyrido[1,2-a]pyrimidine-2-carboxamide]
Second: O=C(NCc1cn2cc(CNCC(F)(F)F)ccc2n1)c1cc(=O)n2ccccc2n1 [Compound 51, 4-oxo-N-[(6-{[(2,2,2-trifluoroethyl)amino]methyl}imidazo[1,2-a]pyridin-2-yl)methyl]-4H-pyrido[1,2-a]pyrimidine-2-carboxamide]
The IC50 of the first is 2.1-fold higher: 2600 nM for the first, 1220 nM for the second.

`CC(=O)NCc1ccc2nc(CNC(=O)c3cccc4[nH]ncc34)cn2c1` [Compound 40, N-{[6-(acetamidomethyl)imidazo[1,2-a]pyridin-2-yl]methyl}-1H-indazole-4-carboxamide] and `O=C(c1cccc2[nH]ncc12)N1CC=C(c2cn3ccccc3n2)C1` [Compound 31, 4-(3-{imidazo[1,2-a]pyridin-2-yl}-2,5-dihydro-1H-pyrrole-1-carbonyl)-1H-indazole] are within 1.5-fold of each other in IC50: 7390 nM for the first, 9350 nM for the second.

Same assay, conditions: 5 nM METTL3/14, 0.2 μM RNA substrate, 0.5 μM SAM; lower limit of the assay IC50=5 nM; Compounds 63-265; read-out: METTL3_14 RFMS IC50

Compared with `CC1(C)CCC(CNCc2ccc3nc(CNC(=O)c4cc(=O)n5ccccc5n4)cn3c2)O1` (centres unmarked) [Compound 143, N-{[6-({[(5,5-dimethyloxolan-2-yl)methyl]amino}methyl)imidazo[1,2-a]pyridin-2-yl]methyl}-4-oxo-4H-pyrido[1,2-a] pyrimidine-2-carboxamide], `CC1(C)CC1CNCc1ccc2nc(CNC(=O)c3cc(=O)n4ccccc4n3)cn2c1` (centres unmarked) [Compound 159, N-{[6-({[(2,2-dimethyl-cyclopropyl)methyl]amino}methyl)imidazo [1,2-a]pyridin-2-yl]methyl}-4-oxo-4H-pyrido [1,2-a]pyrimidine-2-carboxamide] is 7-fold lower in IC50: 136 nM for the first, 19.5 nM for the second.

Going from `COC(=O)C1CCCN(Cc2ccc3nc(CNC(=O)c4cc(=O)n5ccccc5n4)cn3c2)C1` (centres unmarked) [Compound 200, methyl 1-({2-[({4-oxo-4H-pyrido[1,2-a]pyrimidin-2-yl}formamido)methyl]imidazo [1,2-a]pyridin-6-yl}methyl) piperidine-3-carboxylate] to `CC1CCCN(Cc2ccc3nc(CNC(=O)c4cc(=O)n5ccccc5n4)cn3c2)C1` (centres unmarked) [Compound 139, N-({6-[(3-methylpiperidin-1-yl)methyl]imidazo[1,2-a]pyridin-2-yl}methyl)-4-oxo-4H-pyrido[1,2-a]pyrimidine-2-carboxamide], the IC50 falls from 1260 nM to 32.6 nM (39-fold). The second is the more potent here.

Compared with `Cc1ccc2nc(Cc3nnc(-c4cccc5[nH]ncc45)s3)cn2c1` [Compound 66, 4-[5-({6-methylimidazo[1,2-a]pyridin-2-yl}methyl)-1,3,4-thiadiazol-2-yl]-1H-indazole], `O=C(NCC1CCCCC1)c1ccc2nc(Cn3cc(-c4cccc5[nH]ncc45)nn3)cn2c1` [Example 249, N-(cyclohexylmethyl)-2-{[4-(1H-indazol-4-yl)-1H-1,2,3-triazol-1-yl]methyl}imidazo[1,2-a]pyridine-6-carboxamide] is 5.9-fold lower in IC50: 1350 nM for the first, 229 nM for the second.

Going from `O=C(NCc1cn2cc(CNCc3ccc(F)cc3)ccc2n1)c1cc(=O)n2ccccc2n1` [Compound 80, N-{[6-({[(4-fluorophenyl)methyl]amino}methyl)imidazo [1,2-a]pyridin-2-yl]methyl}-4-oxo-4H-pyrido[1,2-a]pyrimidine-2-carboxamide] to `O=C(NCc1cn2cc(CNCc3cccc(F)c3)ccc2n1)c1cc(=O)n2ccccc2n1` [Compound 79, N-{[6-({[(3-fluorophenyl)methyl]amino}methyl)imidazo[1,2-a]pyridin-2-yl]methyl}-4-oxo-4H-pyrido [1,2-a]pyrimidine-2-carboxamide], the IC50 rises from 16.5 nM to 62.5 nM (3.8-fold).

Compared with `C[C@@H]1COC[C@H](c2ccc3nc(CNC(=O)c4cc(=O)n5ccccc5n4)cn3c2)N1` [Example 233, N-({6-[(3S,5R)-5-methylmorpholin-3-yl]imidazo[1,2-a]pyridin-2-yl}methyl)-4-oxo-4H-pyrido[1,2-a]pyrimidine-2-carboxamide], `O=C(NCc1cn2cc([C@H]3COC[C@@H](C4CCCCC4)N3)ccc2n1)c1cc(=O)n2ccccc2n1` [Example 230, N-({6-[(3S,5R)-5-cyclohexylmorpholin-3-yl]imidazo[1,2-a]pyridin-2-yl}methyl)-4-oxo-4H-pyrido[1,2-a]pyrimidine-2-carboxamide] is 17-fold lower in IC50: 1390 nM for the first, 81.3 nM for the second.

First: CN(CCC1CC1)Cc1ccc2nc(CNC(=O)c3cc(=O)n4ccccc4n3)cn2c1 [Compound 204, N-[(6-{[(2-cyclopropylethyl) (methyl)amino]methyl}imidazo [1,2-a]pyridin-2-yl)methyl]-4-oxo-4H-pyrido [1,2-a]pyrimidine-2-carboxamide]
Second: CC1CCN(Cc2ccc3nc(CNC(=O)c4cc(=O)n5ccccc5n4)cn3c2)CC1 [Compound 137, N-({6-[(4-methylpiperidin-1-yl)methyl]imidazo[1,2-a]pyridin-2-yl}methyl)-4-oxo-4H-pyrido[1,2-a] pyrimidine-2-carboxamide]
The IC50 of the first is 3.5-fold higher: 61.5 nM for the first, 17.8 nM for the second. The second is the more potent here.

Going from `O=C(NCc1cn2cc(CN3CC(c4ccccn4)C3)ccc2n1)c1cc(=O)n2ccccc2n1` [Compound 134, 4-oxo-N-[(6-{[3-(pyridin-2-yl)azetidin-1-yl]methyl}imidazo[1,2-a]pyridin-2-yl)methyl]-4H-pyrido[1,2-a] pyrimidine-2-carboxamide] to `O=C(NCc1cn2cc(CN3CCC(Oc4ccccc4)CC3)ccc2n1)c1cc(=O)n2ccccc2n1` [Compound 156, 4-oxo-N-({6-[(4-phenoxypiperidin-1-yl)methyl]imidazo[1,2-a]pyridin-2-yl}methyl)-4H-pyrido[1,2-a] pyrimidine-2-carboxamide], the IC50 falls from 440 nM to 61.7 nM (7.1-fold).

Going from `O=C(NCc1cn2cc(CNCC3CCCCC3)ccc2n1)c1cc(=O)c2cc(Cl)ccc2o1` [Compound 172, 6-chloro-N-[(6-{[(cyclohexylmethyl)amino]methyl}imidazo[1,2-a]pyridin-2-yl)methyl]-4-oxo-4H-chromene-2-carboxamide] to `O=C(NCc1cn2cc(CNC(CO)C3CCCCC3)ccc2n1)c1cc(=O)n2ccccc2n1` (centres unmarked) [Compound 168, N-[(6-{[(1-cyclohexyl-2-hydroxyethyl)amino]methyl}imidazo[1,2-a]pyridin-2-yl)methyl]-4-oxo-4H-pyrido[1,2-a]pyrimidine-2-carboxamide], the IC50 falls from 309 nM to 114 nM (2.7-fold).

Compared with `O=C(NCc1cn2cc(CN3CCC(F)(F)CC3)ccc2n1)c1cc(=O)n2ccccc2n1` [Compound 129, N-({6-[(4,4-difluoropiperidin-1-yl)methyl]imidazo [1,2-a]pyridin-2-yl}methyl)-4-oxo-4H-pyrido[1,2-a]pyrimidine-2-carboxamide], `CC(C)CNCc1ccc2nc(CNC(=O)c3cc(=O)n4ccccc4n3)cn2c1` [Compound 151, N-[(6-{[(2-methylpropyl)amino]methyl}imidazo[1,2-a]pyridin-2-yl)methyl]-4-oxo-4H-pyrido[1,2-a] pyrimidine-2-carboxamide] is 5.2-fold lower in IC50: 84.3 nM for the first, 16.3 nM for the second.

Going from `O=C(NCc1cn2cc(CNCc3ccn(CC(F)(F)F)n3)ccc2n1)c1cc(=O)n2ccccc2n1` [Compound 105, 4-oxo-N-({6-[({[1-(2,2,2-trifluoroethyl)-1H-pyrazol-3-yl]methyl}amino)methyl]imidazo[1,2-a]pyridin-2-yl}methyl)-4H-pyrido[1,2-a] pyrimidine-2-carboxamide] to `CC(C)(C)CNCc1ccc2nc(Cn3cc(-c4cncc5[nH]ncc45)nn3)cn2c1` [Example 256, (2,2-dimethylpropyl)({2-[(4-{1H-pyrazolo[3,4-c]pyridin-4-yl}-1H-1,2,3-triazol-1-yl)methyl]imidazo[1,2-a]pyridin-6-yl}methyl)amine], the IC50 falls from 1200 nM to 246 nM (4.9-fold). The second is the more potent here.

Same assay, conditions: 5 nM METTL3/14, 0.2 μM RNA substrate, 0.5 μM SAM; lower limit of the assay IC50=5 nM; Compounds 266-351; read-out: METTL3_14 RFMS IC50

First: CC1(C)CCN(Cc2ccc3nc(CNC(=O)c4cc(OCCOCCN)cc5[nH]ncc45)cn3c2)CC1 [Example 312, 6-[2-(2-aminoethoxy)ethoxy]-N-[[6-[(4,4-dimethyl-1-piperidyl)methyl]imidazo[1,2-a]pyridin-2-yl]methyl]-1H-indazole-4-carboxamide trihydrochloride]
Second: CC(C)(C#N)CNCc1ccc2nc(CNC(=O)c3cc(=O)n4ccccc4n3)cn2c1 [Compound 275, N-[[6-[[(2-cyano-2-methyl-propyl)amino]methyl]imidazo[1,2-a]pyridin-2-yl]methyl]-4-oxo-pyrido[1,2-a]pyrimidine-2-carboxamide]
The IC50 of the first is 24-fold lower: 52.1 nM for the first, 1240 nM for the second.

Same assay, conditions: read-out: METTL3_14 RFMS IC50

Going from `O=C(NCc1cn2cc(NCCc3ccccc3)ccc2n1)c1cc(=O)n2ccccc2n1` [Compound 191, 4-oxo-N-({6-[(2-phenylethyl)amino]imidazo[1,2-a]pyridin-2-yl}methyl)-4H-pyrido[1,2-a]pyrimidine-2-carboxamide] to `O=C(NCc1cn2cc(CNC34CC(C3)C4)ccc2n1)c1cc(=O)n2ccccc2n1` [Compound 116, N-({6-[({bicyclo[1.1.1]pentan-1-yl}amino)methyl]imidazo[1,2-a]pyridin-2-yl}methyl)-4-oxo-4H-pyrido[1,2-a] pyrimidine-2-carboxamide], the IC50 falls from 4790 nM to 280 nM (17-fold). The second is the more potent here.
